Source: ChEMBL document CHEMBL2150847, “Scaffold hopping strategy toward original pyrazolines as selective CB₂ receptor ligands” (Eur J Med Chem, 2012)
pEC50, pKi: −log10 of the molar value. Active and inactive are the calls of the source. The rule behind the calls is not given here.

Key:
Cannabinoid receptor 2 [1] = molecular target: T1, Cannabinoid receptor 2 (Homo sapiens, UniProt P34972); assay: Antagonist activity at human CB2 receptor expressed in CHO cell membranes after 1 hr by [35S]GTPgammaS binding assay; type: functional
Homo sapiens = species: Homo sapiens; assay: Selectivity ratio of Ki for human CB1 receptor to Ki for human CB2 receptor
Cannabinoid receptor 2 [2] = molecular target: T1, Cannabinoid receptor 2; assay: Displacement of [3H]CP55940 from human CB2 receptor expressed in CHO cell membranes after 1 hr by scintillation counting
Cannabinoid receptor 1 = Cannabinoid receptor 1 (Homo sapiens, UniProt P21554); assay: Displacement of [3H]CP55940 from human CB1 receptor expressed in CHO cell membranes after 1 hr by scintillation counting
Cannabinoid receptor 2 [3] = molecular target: T1, Cannabinoid receptor 2; assay: Agonist activity at human CB2 receptor expressed in CHO cell membranes after 1 hr by [35S]GTPgammaS binding assay relative to baseline; type: functional
Cannabinoid receptor 2 [4] = molecular target: T1, Cannabinoid receptor 2; assay: Agonist activity at human CB2 receptor expressed in CHO cell membranes after 1 hr by [35S]GTPgammaS binding assay; type: functional

T1 sequence (P34972 whole entry): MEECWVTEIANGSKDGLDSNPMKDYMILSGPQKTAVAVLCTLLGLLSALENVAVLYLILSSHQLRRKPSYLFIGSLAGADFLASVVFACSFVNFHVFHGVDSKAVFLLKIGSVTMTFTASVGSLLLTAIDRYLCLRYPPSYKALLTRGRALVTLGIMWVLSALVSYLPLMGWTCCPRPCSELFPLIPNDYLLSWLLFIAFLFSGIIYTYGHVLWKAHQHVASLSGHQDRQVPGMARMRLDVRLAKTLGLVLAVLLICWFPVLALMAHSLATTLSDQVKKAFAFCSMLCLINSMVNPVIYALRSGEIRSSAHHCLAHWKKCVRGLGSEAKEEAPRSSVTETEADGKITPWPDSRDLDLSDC
Sequence of Cannabinoid receptor 1 (P21554 whole entry): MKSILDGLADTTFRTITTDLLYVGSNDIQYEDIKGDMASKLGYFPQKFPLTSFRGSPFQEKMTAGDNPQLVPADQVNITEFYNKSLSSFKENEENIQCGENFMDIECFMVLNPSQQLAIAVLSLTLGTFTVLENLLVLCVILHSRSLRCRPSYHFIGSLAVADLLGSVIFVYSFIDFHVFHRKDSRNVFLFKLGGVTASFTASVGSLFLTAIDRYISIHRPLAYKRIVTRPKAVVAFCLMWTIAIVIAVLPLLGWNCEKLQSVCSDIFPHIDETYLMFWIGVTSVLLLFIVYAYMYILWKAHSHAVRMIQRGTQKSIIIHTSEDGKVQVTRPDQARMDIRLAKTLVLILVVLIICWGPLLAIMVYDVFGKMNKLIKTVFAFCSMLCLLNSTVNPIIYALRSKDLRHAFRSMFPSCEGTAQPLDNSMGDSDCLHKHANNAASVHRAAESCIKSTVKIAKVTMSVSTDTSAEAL

Row | SMILES | Activity (Cannabinoid receptor 2 [1]) | Ratio Ki (Homo sapiens) | pKi (Cannabinoid receptor 2 [2]) | pKi (Cannabinoid receptor 1) | Emax (Cannabinoid receptor 2 [3]) [%] | pEC50 (Cannabinoid receptor 2 [4])
1 | Cc1cc(C2=NN(C(=O)NC3CCCCC3)CC2C2CCCC2)ccc1Cl (configuration not stated) | Active | 1.2 | 5.44 | < 5.52 | – | –
2 | Cc1ccc(CC2CN(C(=O)NC3CCCCC3)N=C2c2ccc(Cl)c(C)c2)cc1 (configuration not stated) | – | > 8 | 6.41 | < 5.52 | 187 | 6.43
3 | O=C(NC1CCCCC1)N1CC(Cc2ccccc2)C(c2ccccc2)=N1 (configuration not stated) | – | > 6 | 6.30 | < 5.52 | 136 | 6.53
4 | O=C(Nc1ccccc1)N1CC(Cc2ccccc2)C(c2ccccc2)=N1 (configuration not stated) | – | – | < 5.52 | < 5.52 | – | –
5 | Cc1cc(C2=NN(C(=O)NC3CCCCC3)CC2Cc2ccccc2)ccc1Cl (configuration not stated) | – | – | < 6.00 | < 5.52 | – | –
6 | Cc1ccc(CC2CN(C(=O)Nc3ccccc3)N=C2c2ccc(Cl)c(C)c2)cc1 (configuration not stated) | – | – | < 6.00 | < 5.52 | – | –
7 | Cc1cc(C2=NN(C(=O)NC3C4(C)CCC(C4)C3(C)C)CC2Cc2ccccc2)ccc1Cl (configuration not stated) | – | > 4 | 6.16 | < 6.00 | 183 | 6.13
8 | O=C(NC1CCCCC1)N1CC(Cc2ccccc2)C(c2ccc(Cl)cc2)=N1 (configuration not stated) | – | – | < 5.52 | < 5.52 | – | –
9 | Cc1ccc(CC2CN(C(=O)NC3C4(C)CCC(C4)C3(C)C)N=C2c2ccc(Cl)c(C)c2)cc1 (configuration not stated) | – | > 4 | 6.60 | < 6.00 | 163 | 6.72
10 | CC(=O)N1CC(Cc2ccccc2)C(c2ccccc2)=N1 (configuration not stated) | – | – | < 5.52 | < 5.52 | – | –
11 | Cc1cc(C2=NN(C(=O)Nc3ccccc3)CC2Cc2ccccc2)ccc1Cl (configuration not stated) | – | – | < 5.52 | < 5.52 | – | –
12 | Cc1cccc(C2=NN(C(=O)NC3CCCCC3)CC2Cc2ccccc2)c1 (configuration not stated) | – | – | < 5.52 | < 5.52 | – | –
13 | O=C(Nc1ccccc1)N1CC(Cc2ccccc2)C(c2ccc(Cl)cc2)=N1 (configuration not stated) | – | – | < 5.52 | < 5.52 | – | –
14 | Cc1cccc(C2=NN(C(=O)Nc3ccccc3)CC2Cc2ccccc2)c1 (configuration not stated) | – | – | < 5.52 | < 5.52 | – | –
